# Reference: patent US5786385A, “Polyacetylenes” (priority 1993, dated 1998)
# Like-named read-outs stand apart in the source and are kept apart here.
# Key:
# [1] = Solubility / lipophilicity; format: physicochemical
# [2] = tested on: pentobarbitone sodium induced sleep; assay: Pentobarbitone sodium induced sleep in rats (sleeping time), analeptic action; format: in vivo, rat; conditions: for ED50: after intraperitoneal 40 mg/kg pentobarbitone sodium, read-out: dose reducing "sleeping time" by 50%
# Description: The effects of cunaniol on pentobarbitone sodium induced sleep in rats were compared with those of the analeptic bemegride. 5 mg/kg of cunaniol administered by intraperitoneal injection antagonises pentobarbitone while 7.4 mg/kg reduces "sleeping time" by 50% after intraperitoneal administration of a concentration of 40 mg/kg pentobarbitone sodium.
# [3] = Potency of cis-cunaniol relative to the trans form; conditions: cis form versus trans form; only about 1/60th
# [4] = for stability to air and light: exposure to light and air / oxygen
# [5] = Craig Distribution studies (Kp value); format: physicochemical; conditions: obtained previously from Craig Distribution studies
# Description: Crude syrup (190 g.) from the cold petrol extraction was dissolved in upper phase solvent (150 mls.). A steady state distribution program was used, based on a Kp value for cunaniol acetate of 0.54 obtained previously from Craig Distribution studies. The mixture was then loaded into the SSDM dosage pump.
# [6] = tested on: guppies; assay: Toxicity test on guppies; format: in vivo, guppy
# Description: Cunaniol or its derivatives may also be used as an effective toxin. When tested on guppies at approximately 10^-6 M the poison gives rise to restless movement after two minutes, wild swimming, convulsion and coma with the body bent laterally after ten minutes.
# [7] = tested on: pithed rats; assay: Pressor response in pithed rats; format: in vivo, rat; conditions: indicating a central action
# Description: (§1) In intact anaesthetised rats, a sustained pressor response is produced by cunaniol administered by intravenous injection in doses of 0.5 mg or greater. In pithed rats the response to cunaniol was abolished, indicating a central action of the polyacetylene.
# [8] = tested on: frog and rat isolated striated muscle preparations; assay: Frog and rat isolated striated muscle preparations, nerve stimulation
# Description: Experiments have been carried out on frog and rat isolated striated muscle preparations.
# [9] = Convulsant action and lethality in rats, intraperitoneal injection; format: in vivo, rat; conditions: rat, in vivo, ip, read-out: non-convulsant dose
# Description: (§2) Rats are also sensitive to the convulsant actions of cunaniol, a convulsant dose being 5 mg/kg. A dosage of 2.24 mg/kg is a non-convulsant dose while 10 mg/kg causes death (intraperitoneal injection).
# [10] = tested on: Rats; assay: as above; format: in vivo, rat
# Description: as §2
# [11] = tested on: isolated rabbit heart; assay: Isolated rabbit heart perfusion
# [12] = tested on: cardiovascular system; assay: Action on the cardiovascular system; conditions: in vivo
# [13] = tested on: GABAergic system; assay: GABA (gamma-amino-butyric acid) antagonism
# [14] = tested on: rat heart; assay: Rat heart contractability and heart block
# [15] = tested on: intact anaesthetised rats; assay: Pressor response in intact anaesthetised rats; format: in vivo, rat; conditions: intravenous injection
# Description: as §1
# [16] = tested on: mice; assay: Convulsant action in mice, intraperitoneal or oral; format: in vivo, mouse; conditions: for convulsant type in mice: intraperitoneally or orally; for similarity of convulsant actions to cunaniol: mice
# [17] = tested on: frogs; assay: Administration to frogs by injection or by topical application: convulsions and death; format: in vivo, frog
# Description: (§3) Cunaniol is about ten times as active and ten times as rapid as the classic central nervous system stimulant picrotoxin. Convulsant action can be antagonised by prior exposure to anticonvulsants such as phenobarbitone or troxidone.
# [18] = tested on: isolated rat phrenic nerve-diaphragm preparation; assay: Isolated rat phrenic nerve-diaphragm preparation
# Description: This is not reversed by neostigmine, i.e. is not curare-like.
# [19] = tested on: frog spinal cord preparation; assay: Frog spinal cord preparation
# Description: as §3
# [20] = tested on: viviparous fish; assay: Release of fry from viviparous fish; format: in vivo; conditions: due to effects on neuromuscular function
# [21] = tested on: central nervous system; assay: Central nervous system stimulant / convulsant activity compared with picrotoxin; antagonism by anticonvulsants; format: in vivo; conditions: for antagonism of cunaniol convulsant action: prior exposure to anticonvulsant
# Description: as §3
molecule,measurement,setting,value
CC#CC#CC#C/C=C/C1OCCCC1O (stereo not shown),solubility in water,[1]; water,low solubility in water
"CCC1(C)CC(=O)NC(=O)C1 [bemegride, reference compound]",ED50,"[2]; Rattus norvegicus, ip, rats",45.7 mg/kg
CC#CC#CC#C/C=C\C1OCCCC1O (stereo not drawn) [cis-cunaniol],potency relative to trans form,[3],about 1/60
CC#CC#CC#CC=CC1OCCCC1OC(C)=O (stereo not shown) [cunaniol acetate],hydrolysis,[4]; with sodium bicarbonate,easily hydrolysed
same,Kp value,[5],0.54
CC#CC#CC#CC=CC1OCCCC1O (stereo not shown) [cunaniol],edibility of treated fish,[6]; almost immediately after treatment,edible almost immediately
same,subsequent symptoms after recovery,[6]; guppies removed into fresh water,no subsequent symptoms
same,time to complete recovery,[6]; guppies removed into fresh water after ten minutes at approximately 10^-6 M,approximately twenty
same,time to restless movement,"[6]; guppies, approximately 10^-6 M",two
same,"time to wild swimming, convulsion and coma with the body bent laterally","[6]; guppies, approximately 10^-6 M",ten
same,stability to air and light,[4],readily decomposed to a brown material
same,stability to air and light,[4]; listed as trans-cunaniol,unstable to oxygen and light
same,storage stability,"[4]; solid under n-hexane, in the dark, in a refrigerator",could be kept for years
same,minimal effective dose,"[2]; Rattus norvegicus, ip, rats, intraperitoneal injection, read-out: dose antagonising pentobarbitone",5 mg/kg
same,ED50,"[2]; Rattus norvegicus, ip, rats",7.4 mg/kg
same,selectivity as analeptic,[2]; compared with bemegride and leptazol,more selective anti-phenobarbitone action
same,analeptic potency compared with bemegride,"[2]; rats, 50% reduction of ""sleeping time""",more potent than bemegride
same,pressor response in pithed rats,[7],abolished
same,response to nerve stimulation,[8],increased response to nerve stimulation
same,neuromuscular transmission at higher concentrations,[8]; higher concentrations,failure in neuromuscular transmission
same,NOAEL,[9],2.24 mg/kg
same,convulsant dose,[10],5 mg/kg
same,dose causing death,[10],10 mg/kg
same,effect on isolated rabbit heart,"[11]; perfusion, 100 μg/ml, preliminary experiments",negative inotropic effect culminating in complete but reversible cardiac arrest in diastole
same,effect on the cardiovascular system,[12],transient depressant effect on the heart and a sustained pressor response
same,GABA antagonist activity,[13],GABA (gamma-amino-butyric acid) antagonist
same,"effect on rat heart, larger doses",[14]; larger doses,complete heart block
same,reversibility of heart block,"[14]; on washing out, no apparent impairment of function",rapidly reversed on washing out
same,"effect on rat heart, small doses",[14]; small doses,reduce contractability of the rat heart
same,dose producing a sustained pressor response,[15],≥ 0.5 mg
same,potency among the clonic convulsants,"[16]; both routes of administration, compared with leptazol, picrotoxin",most potent of the clonic convulsants
same,speed of onset of effects,[16]; compared with the other compounds,usually occurred more rapidly than with the other compounds
same,convulsant type in mice,[16],clonic convulsant
same,effect in frogs,[17]; by injection or by topical application,clonic convulsions and death
same,LD50,"[17]; frogs, intraperitoneal injection",12.8 mg/kg
same,minimal effective concentration,"[18]; Rattus norvegicus, direct action on the muscle, dose dependent, concentrations as low as, read-out: lowest concentration giving marked potentiation",12.5 µg/mL
same,concentration giving complete neuromuscular block,[18]; higher concentrations,100 µg/mL
same,reversal of block by washing,[18]; washing,readily reversed by washing
same,time for removal of potentiation by washing,"[18]; washing, more slowly removed than block",60 min
same,effects on frog spinal cord preparation,[19],resemble those of nicotine
same,release of fry from viviparous fish,[20],highly effective
same,rapidity relative to picrotoxin,[21]; ten times as rapid as picrotoxin,about ten
same,lipophilicity,[1]; due to the polyacetylene chain,lipophilic
CC#CC#CC#C/C=C/C1OCCCC1OC1C=C[C@H](OC(C)=O)[C@@H](COC(C)=O)O1 (stereo partly shown) [glycoside],liberation of cunaniol on hydrolysis,[4]; hydrolysis of the glycoside link,readily liberated on hydrolysis
C1CCc2nnnn2CC1 [leptazol],similarity of convulsant actions to cunaniol,[16],mimicked closely
"CN(C)C(=O)Oc1cccc([N+](C)(C)C)c1 [neostigmine, reference compound]",reversal of neuromuscular block by neostigmine,"[18]; block by cunaniol, i.e. not curare-like",not reversed
"CCC1(c2ccccc2)C(=O)NC(=O)NC1=O [phenobarbitone, reference compound]",antagonism of responses of guppies to cunaniol,[6]; in vivo,readily antagonises all responses
same,antagonism of cunaniol convulsant action,[21],antagonised
C=C(C)[C@H]1Cc2c(ccc3c2O[C@@H]2COc4cc(OC)c(OC)cc4[C@@H]2C3=O)O1 [rotenone],reversibility in isolated rabbit heart,[11]; similar experiment with rotenone,did not exhibit the reversibility
same,toxicity to mice,"[16]; metabolic toxin, comparison",highly toxic to mice
same,similarity of convulsant actions to cunaniol,[16],qualitatively different from the convulsants
O=C1C[C@@H]2OCC=C3CN4CC[C@]56c7ccccc7N1[C@H]5[C@H]2[C@H]3C[C@H]46 [strychnine],convulsant type in mice,[16],tonic convulsions
same,similarity of convulsant actions to cunaniol,[16],differed
"CN1C(=O)OC(C)(C)C1=O [troxidone, reference compound]",antagonism of cunaniol convulsant action,[21],antagonised
picrotoxin,similarity of convulsant actions to cunaniol,[16],less closely
